Laboratory results as given in patent US20070116782A1, “USE OF RARE EARTH COMPOUNDS FOR THE PREVENTION OF KIDNEY STONE DISEASE” (SHIRE INT[…] B.V., priority 2001, published 2007).
Where two headings read alike, the source gives them in different places.

Experiments:
[1] = Method: (§1) In order to assess removal of oxalate from a stock solution by lanthanum carbonate, an oxalate binding assay was developed. […] Further, the buffer conditions were designed to mimic the conditions present in the stomach and in the small intestine. Briefly, 50 mL of a stock sodium oxalate solution containing 8.5 g/L sodium chloride was adjusted to the desired pH using 5N HCl and the Mettler-Toledo DL58 autotitrator. Various combinations of oxalate and lanthanum carbonate concentrations were tested to determine which would maximize oxalate removal. Prior to the addition of the desired amount of lanthanum carbonate, a 2 mL sample was taken to act as a zero time point sample. The volume of buffer was made up to 50 mL again by adding 2 mL of stock oxalate buffer back to the pH adjusted buffer and the lanthanum carbonate was added. […] In addition, samples were assayed at 590 nm in a Falcon 96-well microplate using the Molecular Devices Spectramax 190 plate reader.
In order to maximize the accuracy of the results, the filtered samples were assayed at a 1/20 dilution.
The procedure described above was repeated at various pH's in the range of 3-7.

[2] = Oxalate binding assay of Example 1 with pH maintained with 1N NaOH (chlorides, acetates); conditions: pH 7, pH maintained with 1N NaOH
Method: as §1

[3] = 0.1 M compound, 0.01 M oxalate, 0.1 M phosphate (10-fold excess)
Method: In addition, samples were assayed at 590 nm in a Falcon 96-well microplate using the Molecular Devices Spectramax 190 plate reader.

[4] = 0.1 M compound; 0.1 M phosphate, 0.01 M oxalate; pH 3 gradually increased to pH 7
[5] = pH 7, 0.1 M compound, 0.01 M sodium oxalate, 8.5 g/L sodium chloride

Compound: O.O.O.O.O=C([O-])[O-].O=C([O-])[O-].O=C([O-])[O-].[La+3].[La+3] [lanthanum carbonate tetrahydrate]
- oxalate binding [1, 5]: can effectively bind oxalate
- oxalate binding at various pH ([1]; pH range 3-7): can bind oxalate in this pH range (3-7) with preferential binding at pH 6-7

Compound: [Cl][La]([Cl])[Cl] [lanthanum chloride]
- oxalate binding [2]: binds oxalate quite rapidly

Compound: O.O.O.O.O.O=C([O-])[O-].O=C([O-])[O-].O=C([O-])[O-].[La+3].[La+3] [lanthanum carbonate pentahydrate]
- competitive binding of oxalate vs phosphate ([3]; pH 3.0): Preferential binding of phosphate
- competitive binding of oxalate vs phosphate ([3]; pH 7.0): preferentially bind oxalate over phosphate
- oxalate binding [1, 5]: can effectively bind oxalate

Compound: O=C([O-])[O-].O=C([O-])[O-].O=C([O-])[O-].[Ce+3].[Ce+3] [cerium carbonate]
- oxalate binding ([1]; pH 3 (compared with pH 7), 0.1 M compound): less effective
- oxalate binding compared with 0.1 M lanthanum carbonate ([1]; pH 7, 0.1 M compound): as effective as 0.1 M lanthanum carbonate

Compound: O=C([O-])[O-].O=C([O-])[O-].O=C([O-])[O-].[La+3].[La+3] [lanthanum carbonate]
- oxalate binding in the presence of excess phosphate during pH transition [4]: can successfully bind oxalate
